These results are taken from patent publication US5536491A, “^19 F poly aza macrocyclic MRI contrast medium” (Terumo Kabushiki Kaisha, priority 1993, dated 1996).

Series [1] can be described thus: Measurement of relaxation time (T1 and T2 of intramolecular fluorine atoms) by 90 MHz NMR. Particulars: 10mM aqueous solution. The arrangement: unit not given here. The series is classed as physicochemical.
A short description of series [2]: Measurement of imaging sensitivity (phantom experiment), 19F MRI. The arrangement: key to detectability as image at 500 mM / detectability as image at 100 mM / detectability as image at 50 mM / detectability as image at 10 mM / detectability as image at 5 mM / detectability as image at 1 mM / detectability as image at 500 μM / detectability as image at 100 μM: .smallcircle.: detectable as clear image; Δ: margially detectable as image; x: undetectable. Particulars: 1.5 T; for detectability as image at 100 μM / detectability as image at 500 μM / detectability as image at 1 mM / detectability as image at 5 mM / detectability as image at 10 mM / detectability as image at 50 mM / detectability as image at 100 mM / detectability as image at 500 mM: 20 min, complexes GRASS TR 10/TE 2 msec, 5-FU spin echo TR 4500/TE 100 msec. The protocol:
Measurement of imaging sensitivity (phantom experiment)
Each of metal complex solution with various concentration of the present invention was sealed in cylindrical acryl phantom with an inner diameter of 1 cm and a height of 10 cm and subject to imaging. SIGNA (1.5 T) available from GE was used as an MRI apparatus, and imaging was performed by using a surface coil 13 cm in diameter for fluorine. A GRASS method was used as a pulse sequence and measurement condition was as followed:
TR (repetition time)=10 msec;
The measurement was performed for 20 min., and the number of acquisition was 937. As references, alkaline aqueous solutions of 5-fluorouracil with various concentrations were imaged by an identical apparatus. […] The imaging time was 20 min., and the number of acquisition was twice. […] In contrast, each metal complex compound of the present […] of 0.5 mM to 5 mM.

In series [1], `O=C(O)CN1CCCN(CC(=O)O)CCN(Cc2ccc(C(C(F)(F)F)(C(F)(F)F)C(F)(F)F)cc2)CCCN(CC(=O)O)CC1.[Gd]` [Compound-10, gadolinium complex of 1-[4-[tris(trifluoromethyl)methyl]benzyl]-1,4,8,11-tetraazacyclotetradecane-4,8,11-triacetic acid] had a T1 of 3.27 and a T2 of 2.83.

In series [1], `O=C(O)CN1CCCN(CC(=O)O)CCN(Cc2cc(C(F)(F)F)cc(C(F)(F)F)c2)CCCN(CC(=O)O)CC1.[Gd]` [Compound-4, gadolinium complex of 1-[3,5-bis(trifluoromethyl)benzyl]-,1,4,8,11-tetraazacyclotetradecane-4,8,11-triacetic acid] displayed a T1 of 2.16 and a T2 of 1.82. Besides, in series [2], the “detectability as image at 100 μM” value is “x”, the “detectability as image at 500 μM” value was “Δ”, the “detectability as image at 1 mM” value is on record as “.smallcircle” and the “detectability as image at 5 mM” value is “.smallcircle”. In addition, in series [2], the “detectability as image at 10 mM” value is reported as “.smallcircle”, the “detectability as image at 50 mM” value is given as “.smallcircle”, the “detectability as image at 100 mM” value was “.smallcircle” and the “detectability as image at 500 mM” value is reported as “.smallcircle”.

`O=C(O)CN1CCCN(CC(=O)O)CCN(Cc2cc(C(F)(F)F)cc(C(F)(F)F)c2)CCCN(CC(=O)O)CC1.[Cu]` [Compound-23, copper complex of 1-[3,5-bis(trifluoromethyl)benzyl]-1,4,8,11-tetraazacyclotetradecane-4,8,11-triacetic acid]: in series [1], the T1 is given as 36.5 and the T2 was 24.9. Also, in series [2], the “detectability as image at 100 μM” value is given as “x”, the “detectability as image at 500 μM” value is on record as “x”, the “detectability as image at 1 mM” value was “Δ” and the “detectability as image at 5 mM” value was “.smallcircle”. Moreover, in series [2], the “detectability as image at 10 mM” value is “.smallcircle”, the “detectability as image at 50 mM” value is recorded as “.smallcircle”, the “detectability as image at 100 mM” value was “.smallcircle” and the “detectability as image at 500 mM” value was “.smallcircle”.

With “gadolinium complex with 1-(2,2,2-trifluoroethyl)-1,4,8,11-tetraazacyclodecane-4,8,11-tetraacetic acid [Compound-1]”, in series [1], the T1 stood at 1.73 and the T2 came to 1.58.

Take `O=C(O)CN1CCN(CC(=O)O)CCN(Cc2cc(C(F)(F)F)cc(C(F)(F)F)c2)CCN(CC(=O)O)CC1.[Gd]` [Compound-8, gadolinium complex of 1-[3,5-bis(trifluoromethyl)benzyl]1,4,7,10-tetraazacyclododecane-4,7,10-triacetic acid]: in series [1], the T1 worked out at 2.11 and the T2 came to 1.79.

In series [1], “gadolinium complex of 1-[N""'-[3,5-bis(trifluoromethyl)benzyl]aminoethyl]-1,4,8,11-tetraazacyclotetradecane-4,8,11-triacetic acid [Compound-21]” gave a T1 of 6.34 and a T2 of 4.21.

`O=C(O)CN1CCCN(CC(=O)O)CCN(CC(=O)O)CCCN(CCN(Cc2cc(C(F)(F)F)cc(C(F)(F)F)c2)Cc2cc(C(F)(F)F)cc(C(F)(F)F)c2)CC1.[Gd]` [Compound-20, gadolinium complex of 1-[N""',N""'-bis[3,5-bis(trifluoromethyl)benzyl]aminoethyl]-1,4,8,11-tetraazacyclotetradecane-4,8,11-triacetic acid]: in series [2], the “detectability as image at 100 μM” value is reported as “Δ”, the “detectability as image at 500 μM” value is reported as “Δ”, the “detectability as image at 1 mM” value is recorded as “.smallcircle” and the “detectability as image at 5 mM” value is on record as “.smallcircle”. Moreover, in series [2], the “detectability as image at 10 mM” value is listed as “.smallcircle”, the “detectability as image at 50 mM” value was “.smallcircle”, the “detectability as image at 100 mM” value was “.smallcircle” and the “detectability as image at 500 mM” value is recorded as “.smallcircle”.

Turning to `O=C(O)CN1CCCN(Cc2cc(C(F)(F)F)cc(C(F)(F)F)c2)CCN(CC(=O)O)CCCN(Cc2cc(C(F)(F)F)cc(C(F)(F)F)c2)CC1.[Gd]` [Compound-5], in series [2], the “detectability as image at 100 μM” value is recorded as “x”, the “detectability as image at 500 μM” value is “Δ”, the “detectability as image at 1 mM” value was “.smallcircle” and the “detectability as image at 5 mM” value was “.smallcircle”. In series [2], the “detectability as image at 10 mM” value is reported as “.smallcircle”, the “detectability as image at 50 mM” value is “.smallcircle”, the “detectability as image at 100 mM” value is recorded as “.smallcircle” and the “detectability as image at 500 mM” value was “.smallcircle”.

In the case of `O=C(O)CN1CCCN(CC(=O)O)CCN(Cc2ccc(/C=C/c3cc(C(F)(F)F)cc(C(F)(F)F)c3)cc2)CCCN(CC(=O)O)CC1.[Gd]` [Compound-13, gadolinium complex of 1-[4-[2-trans-(3,5-bis(trifluoromethyl)phenyl)vinyl]benzyl]-1,4,8,11-tetraazacyclotetradecane-4,8,11-triacetic acid], in series [1], the T1 worked out at 12.6 and the T2 was determined as 9.31. Besides, in series [2], the “detectability as image at 100 μM” value is listed as “x”, the “detectability as image at 500 μM” value was “x”, the “detectability as image at 1 mM” value is “Δ” and the “detectability as image at 5 mM” value is given as “.smallcircle”. In series [2], the “detectability as image at 10 mM” value is given as “.smallcircle”, the “detectability as image at 50 mM” value was “.smallcircle”, the “detectability as image at 100 mM” value is “.smallcircle” and the “detectability as image at 500 mM” value is “.smallcircle”.

`O=C(O)CN1CCCN(CC(=O)O)CCN(Cc2ccc(C(F)(F)F)cc2)CCCN(CC(=O)O)CC1.[Gd]` [Compound-3]: in series [2], the “detectability as image at 100 μM” value is “x”, the “detectability as image at 500 μM” value was “x”, the “detectability as image at 1 mM” value is reported as “Δ” and the “detectability as image at 5 mM” value is “Δ”. For the same compound, in series [2], the “detectability as image at 10 mM” value is “.smallcircle”, the “detectability as image at 50 mM” value was “.smallcircle”, the “detectability as image at 100 mM” value is listed as “.smallcircle” and the “detectability as image at 500 mM” value is “.smallcircle”.

With `O=c1[nH]cc(F)c(=O)[nH]1` [Compound 5-FU, 5-fluorouracil, reference compound], in series [2], the “detectability as image at 100 μM” value is given as “x”, the “detectability as image at 500 μM” value is reported as “x”, the “detectability as image at 1 mM” value is “x” and the “detectability as image at 5 mM” value is “x”. Further, in series [2], the “detectability as image at 10 mM” value is given as “x”, the “detectability as image at 50 mM” value is on record as “Δ”, the “detectability as image at 100 mM” value was “Δ” and the “detectability as image at 500 mM” value is recorded as “.smallcircle”. Moreover, the “concentration required for detection as a clear image” value in series [2] (20 min imaging) is reported as at least 500 mM.

For the compound `O=C([O-])CN1CCCN(CC(=O)[O-])CCN(Cc2cc(C(F)(F)F)cc(C(F)(F)F)c2)CCCN(CC(=O)[O-])CC1.[Cr+3]` [Compound-24, chromium complex of 1-[3,5-bis(trifluoromethyl)benzyl]-1,4,8,11-tetraazacyclotetradecane-4,8,11-triacetic acid], in series [1], the T1 amounted to 15.5 and the T2 stood at 10.4.
